Consider 20 compounds from patent publication US4892882A, “Carbamoyloxy-isoxazole derivatives, their preparation and insecticidal compositions containing them” (priority 1980, dated 1990).

Like-named read-outs stand apart in the source and are kept apart here.

Series [1] has as its system brown planthopper (Nilaparvata lugens). Kind of series: Activity against the brown planthopper, dust on rice seedlings. The following applies: topical, 10 mg per pot, resistant strain, final instar larvae, 72 hours, 25° C., read-out: Percentage mortality, Brown planthopper. Type of series: in vivo. As for the experimental part:
(§1) A dust was prepared by homogeneously mixing and pulverizing twice with a pulverizer 2 parts by weight of each in turn of the test compounds indicated in Table 4 and 98 parts by weight of clay. The dusts were then sprayed onto rice seedlings planted in plastic pots and covered with a plastic cylinder in amounts sufficient to provide 10 mg of the […] dust per pot (corresponding to 1.4 kg of dust per 10 ares). 10-15 of the final instar larvae of the green rice leafhopper (Naphotettix cincticeps) or of the brown planthopper (Nilaparvata lugens) of strains known to be resistant both to conventional organic phosphorus and carbamate insecticides were released into each pot. After maintaining the pots at 25° C. for 72 hours, the percentage mortality of the larvae was assessed. Each test was carried out twice and the results averaged.

Series [2] has as its system green peach aphid (Myzus persicae). Kind of series: Control of green peach aphid, contact activity. The following applies: topical, 72 hours, 25° C., read-out: Percentage mortality of green peach aphid, Contact. Type of series: in vivo. The procedure: (§2) A wettable powder was prepared by homogeneously mixing and pulverizing three times in a hammer mill 10 parts by weight of one of the test compounds indicated in Tables 2 and 3, 4 parts by weight of sodium dodecylbenzene sulphonate, 2 parts by weight of polyvinyl alcohol and 84 parts by weight of clay. The wettable powder thus prepared was then diluted with water to the concentration indicated in Table 1, and then 0.01% w/v of Gramin (a spreader) was added.
The resulting diluted solution was then sprayed onto the leaves of a cabbage bearing green peach aphids (Myzus persicae) in an amount of 10 ml per leaf. The leaf stalk of each leaf was then placed in a 30 ml bottle containing water and the mouth of the bottle was plugged with cotton wool. The bottles were then left in a room maintained at 25° C.

Series [3] has as its system green rice leafhopper (Naphotettix cincticeps). The series can be described thus: Activity against the green rice leafhopper, dust on rice seedlings. Type of series: in vivo. To be noted: Nephotettix cincticeps, topical, 10 mg per pot, resistant strain, final instar larvae, 72 hours, 25° C., read-out: Percentage mortality, Green rice leafhopper. As for the experimental part: as §1

Series [4] deals with green peach aphid (Myzus persicae). Kind of series: Control of green peach aphid, systemic activity. To be noted: 72 hours, 25° C., read-out: Percentage mortality of green peach aphid, Systemic. It is filed as in vivo. The procedure: as §2
The suspensions were then poured into 30 ml bottles. Leaves of the Chinese mustard "Komatsuna" bearing green peach aphids were then placed in the bottles and the mouths of the bottles were plugged with cotton wool. The bottles were placed in a room maintained at 25° C. for 72 hours, after which the percentage mortality of the aphids was assessed.

Series [5] in a line: Toxicity test in mice, mortality after 7 days (Litchfield and Wilcoxon). The arrangement: species or system mice (ddY-SLC). The following applies: mouse, in vivo. As for the experimental part: Each of the compounds listed in Table 1 was administered in the form of a suspension, to which 0.5% w/v gum tragacanth had been added, to a group of 5 week old ddY-SLC series mice. Each test group consisted of 10 male and 10 female mice. The LD50 value was calculated, by the method of Litchfield and Wilcoxon [J. Pharmac. Exp. Ther. 96, 99 (1949)], from the mortality rate after 7 days.

The next series has as its system brown planthopper. The series can be described thus: Activity against the brown planthopper (mixed formulation). It is filed as in vivo. To be noted: Nilaparvata lugens, topical; for mortality at 50 mg: read-out: percentage mortality, insecticide alone (Compound 1 0 mg). As for the experimental part:
Soil and water were placed into plastic pots having inside diameters and heights each of about 10 cm to prepare the pots for submerged cultivation,with water to a depth of about 2 cm. Rice seedlings were then planted in the pots and maintained in a greenhouse, until they had grown to a height of about 15 cm.
Dusts were prepared, each containing 0.1% w/w of Compound No. 1 or of the known organic phosphate or carbamate insecticides listed in Table 5, and these were homogeneously applied, in the amounts specified in the Table, to each pot. 10-15 of the final instar larvae of the brown planthopper were then released onto each pot. The pots were then covered and maintained at 25° C. for 72 hours, after which the percentage mortality of the larvae was assessed.
The experiments were conducted using the known organic phosphate and carbamate insecticides either alone or together with Compound No. 1 (50 mg). The percentage mortality achieved using Compound No. 1 alone in an amount of 50 mg was also assessed and found to be 0%. The expected percentage mortality of the combination of Compound No. 1 with the known organic phosphate and carbamate insecticides was calculated by the method of C. I. Bliss [Ann. Appl. Biol. 26, 585 (1939)] and is shown in parentheses in the Table.

Series [6] relates to green peach aphids of a strain resistant to organic phosphate insecticides. Kind of series: Activity against green peach aphids (mixed formulation). It is filed as in vivo. The following applies: Myzus persicae, topical, read-out: Percentage mortality. The procedure: Emulsifiable concentrates containing a total of 25% by weight of active ingredient or ingredients were prepared as described in Example 22 and diluted with water to the concentrations given in the following Table 6. Each emulsion contained as active ingredient Compound No. 1, Compound No. 9 or the known insecticide isoxathion alone or contained a mixture of isoxathion and Compound No. 1 or No. 9. The diluted emulsions were sprayed, in an amount of 10 ml per leaf, onto the leaves of the Chinese mustard "Komatsuna" bearing green peach aphids of a strain known to be resistant to organic phosphate insecticides. The leaf stalks of the leaves were placed into 30 ml bottles and the mouths of the bottles were plugged with cotton wool. After maintaining the leaves at 25° C. for 72 hours, the percentage mortality was assessed and the results are shown in Table 6. The expected percentage mortality of the combinations of Compound No. 1 or No. 9 with Isoxation is shown in parentheses in the table.

The mark [7] stands for this setting: 0.1% dust 50 mg, 72 hours, 25° C.

As for `Cc1cc(OC(=O)N(C)C)no1` [3-Dimethylcarbamoyloxy-5-methylisoxazole, reference compound], the mortality at 10 mg/pot in series [1] is 22%. In addition, in series [2], the mortality at 12.5 ppm came to 34% and the mortality at 50 ppm came out at 84%. Further, the mortality at 10 mg/pot in series [3] amounted to 9%. Moreover, in series [4], the mortality at 1.56 ppm turned out to be 74% and the mortality at 6.25 ppm is 89%. In series [5] (male/female mice), this compound yielded an LD50 at 168 h of 31.2 mg/kg.
On to `CSCc1cc(OC(=O)N(C)C)no1` [Compound No. 1, 3-Dimethylcarbamoyloxy-5-methylthiomethylisoxazole], for which the mortality at 10 mg/pot in series [1] was 100%. Moreover, in series [2], the mortality at 12.5 ppm amounted to 83% and the mortality at 50 ppm came out at 100%. Moreover, the mortality at 50 mg/pot in the series with brown planthopper (72 h, read-out: percentage mortality, Compound No. 1 alone) turned out to be 0%. For the same compound, in series [3], the mortality at 10 mg/pot was 65%. In series [6] (72 h), the mortality at 5 ppm was found to be 25.8% and the mortality at 10 ppm amounted to 59.8%. For the same compound, in series [4], the mortality at 1.56 ppm was found to be 100% and the mortality at 6.25 ppm came to 100%. In series [5] (female mice), the LD50 at 168 h was found to be 109 mg/kg. The 50% lethal dose (LD50) at 168 h in series [5] (male mice) was 110 mg/kg.
As for `CCSCc1cc(OC(=O)N(C)C)no1` [Compound No. 2, 3-Dimethylcarbamoyloxy-5-ethylthiomethylisoxazole], the mortality at 10 mg/pot in series [1] came out at 95%; in series [3] it was 67%. Further, in series [2], the mortality at 50 ppm is 100%. Besides, the mortality at 6.25 ppm in series [4] amounted to 100%. Further, the figures for the 50% lethal dose (LD50) at 168 h in series [5] (female mice) and in series [5] (male mice) were 104 mg/kg and 125 mg/kg, respectively.
As to `CN(C)C(=O)Oc1cc(C[S+](C)[O-])on1` (stereo not shown) [Compound No. 5, 3-Dimethylcarbamoyloxy-5-methylsulphinylmethylisoxazole], in series [2], the mortality at 50 ppm is 86%. Moreover, the mortality at 6.25 ppm in series [4] was 100%.
Take `CSCc1onc(OC(=O)N(C)C)c1Cl` [Compound No. 9, 4-Chloro-3-dimethylcarbamoyloxy-5-methylthiomethylisoxazole]: in series [1], the mortality at 10 mg/pot came to 100%. In series [2], the mortality at 12.5 ppm turned out to be 90% and the mortality at 50 ppm came to 100%. Moreover, in series [6] (72 h), the mortality at 2.5 ppm was determined as 20.1% and the mortality at 5 ppm came to 38.4%. For the same compound, in series [4], the mortality at 1.56 ppm came out at 100% and the mortality at 6.25 ppm amounted to 100%.
Take `CN(C)C(=O)Oc1noc(CS(C)(=O)=O)c1Cl` [Compound No. 12, 4-Chloro-3-dimethylcarbamoyloxy-5-methylsulphonylmethylisoxazole]: the mortality at 50 ppm in series [2] worked out at 82%. The mortality at 6.25 ppm in series [4] stood at 90%.
In the case of `CCOP(=S)(OCC)Oc1cc(-c2ccccc2)on1` [Isoxathion, O,O-Diethyl O-(5-phenyl-3-isoxazolyl)phosphorothioate, reference compound], the mortality at 25 ppm in series [6] (Isoxathion 25 ppm, 72 hours, 25° C.) worked out at 0%. Further, the mortality at 50 ppm in series [6] (Isoxathion 50 ppm, 72 hours, 25° C.) was 4.4%.
`CNC(=O)Oc1ccccc1C(C)C` [MIPC, 2-Isopropylphenyl N-methylcarbamate]: in the series with brown planthopper (setting [7]), the mortality at 50 mg is 25%.
Same read-out and setting: then `CNC(=O)Oc1cccc(C)c1` [MTMC, 3-Tolyl N-methylcarbamate], with 20.8%.
Take `CNC(=O)Oc1cccc2ccccc12` [NAC, 1-Naphthyl N-methylcarbamate]: in the series on brown planthopper (72 h), the mortality at 50 mg turned out to be 29.2%.
Turning to `CCCSCc1cc(OC(=O)N(C)C)no1` [compound 3, 3-Dimethylcarbamoyloxy-5-propylthiomethylisoxazole], the mortality at 10 mg/pot in series [1] and in series [3] was 68% each time. Moreover, the mortality at 50 ppm in series [2] worked out at 86%. In addition, in series [4], the mortality at 6.25 ppm stood at 100%.
For `CC(C)SCc1cc(OC(=O)N(C)C)no1` [compound 4, 3-Dimethylcarbamoyloxy-5-isopropylthiomethylisoxazole], the mortality at 50 ppm in series [2] was 81%. Moreover, in series [4], the mortality at 6.25 ppm came out at 96%.
On the same counts, the results for `CC[S+]([O-])Cc1cc(OC(=O)N(C)C)no1` (stereo not shown) [compound 6, 3-Dimethylcarbamoyloxy-5-ethylsulphinylmethylisoxazole] are 88% and 100%.
Turning to `CN(C)C(=O)Oc1cc(CS(C)(=O)=O)on1` [compound 7, 3-Dimethylcarbamoyloxy-5-methylsulphonylmethylisoxazole], in series [2], the mortality at 50 ppm was 82%. The mortality at 6.25 ppm in series [4] was determined as 85%.
On the same counts, the results for `CCS(=O)(=O)Cc1cc(OC(=O)N(C)C)no1` [compound 8, 3-Dimethylcarbamoyloxy-5-ethylsulphonylmethylisoxazole] are 80% and 85%.
On the same counts, the results for `CCSCc1onc(OC(=O)N(C)C)c1Cl` [compound 10, 4-Chloro-3-dimethylcarbamoyloxy-5-ethylthiomethylisoxazole] are 97% and 100%.
On the same counts, the results for `CN(C)C(=O)Oc1noc(C[S+](C)[O-])c1Cl` (stereo not shown) [compound 11, 4-Chloro-3-dimethylcarbamoyloxy-5-methylsulphinylmethylisoxazole] are 100% and 100%.
As for `CSCc1onc(OC(=O)N(C)C)c1Br` [compound 13, 4-Bromo-3-dimethylcarbamoyloxy-5-methylthiomethylisoxazole], in series [2], the mortality at 12.5 ppm turned out to be 99% and the mortality at 50 ppm turned out to be 100%. Further, in series [4], the mortality at 1.56 ppm was 100% and the mortality at 6.25 ppm was 100%.
As to `CSCc1onc(OC(=O)N(C)C)c1I` [compound 14, 3-Dimethylcarbamoyloxy-4-iodo-5-methylthiomethylisoxazole], the mortality at 50 ppm in series [2] amounted to 86%. Also, the mortality at 6.25 ppm in series [4] was 100%.
As for `COCc1cc(OC(=O)N(C)C)no1` [compound 15, 3-Dimethylcarbamoyloxy-5-methoxymethylisoxazole], the mortality at 50 ppm in series [2] was 84%. Besides, in series [4], the mortality at 6.25 ppm was found to be 100%.

One may read the mortality as the share of the test organisms that died. Broadly, the LD50 is the dose expected to kill half of the subjects tested. Higher therefore signals lower toxicity.
